Test results published in paper PMC10611619, “[^99mTc]Tc-PentixaTec: development, extensive pre-clinical evaluation, and first human experience” (European Journal of Nuclear Medicine and Molecular Imaging, 2023).
Where a SMILES comes first, the peptide text is derived from it. Side-chain parts run from the residue outwards. [ ]: non-standard residue; d: D form. The star is where a group is joined. 2Nal = N[C@@H](Cc1ccc2ccccc2c1)C(=O)O; dNMeOrn = CN[C@H](CCCN)C(=O)O; 4Abz = Nc1ccc(C(=O)O)cc1; X1 = NCCNCC(CNCCN)C(=O)*; dDap = NC[C@@H](N)C(=O)O

Tests used:
[1] = tested on: hCXCR4 expressing Chem-1 cells; test: Dual tracer internalization studies with [^125I]FC-131 as internal reference; format: cell-based, human
Procedure: Dual tracer internalization studies using [^125I]FC-131 as internal reference were conducted in hCXCR4 expressing Chem-1 cells in analogy to a previously established protocol. A detailed assay protocol is provided in the supplementary material section.
On the day prior to the experiment, Chem-1 cells were seeded in 24-well-plates at a density of app. 1·10^5 cells per well. On the day of the experiment, the culture medium was removed and the cells were washed once with 250 µL of unsupplemented medium before being left to equilibrate in 200 µL of assay medium (DMEM/F-12 containing 5% BSA) at 37°C for a minimum of 15 min before the experiment. Cells were then coincubated with the respective ^99mTc-labeled compound of interest (0.2 nM) and [^125I]FC-131 (0.2 nM) in the absence (total binding) or presence (non-specific binding) of 100 µM AMD3100 for different time points up to 120 min at 37°C (n=3 wells, respectively, per time point). Incubation was terminated by placing the plate on an ice pack for app. 1 min and by subsequent removal of the incubation medium. Cells were thoroughly rinsed with 250 µL of HBSS. After washing twice with 250 µL of ice cold acid wash buffer (0.02 M NaOAc buffered with AcOH to pH = 5), cells were lysed with 250 µL of 1 N NaOH. The lysate was tranferred to vials and combined with 250 µL of HBSS used for rinsing the wells. Quantification of the amount of free, acid-releasable and internalized ^99mTc- and ^125I-activity was performed using dual isotope protocol on a WIZARD^2® 2480 automatic γ-Counter (Perkin Elmer, Waltham MA, USA).
All data were corrected for non-specific internalization in the presence of […] AMD3100 and were then normalized to the specific internalization observed of the standard radioligand [^125I]FC-131.

[2] = In vitro stability in various media (radio-TLC); format: in vitro ADME; conditions: for percentage of intact tracer: original product formulation
Procedure: Solutions were incubated for up to 13 h at room temperature. Sequential radio-thin layer chromatography was performed after 20 min, 40 min, 100 min, 2.6 h, 3.6 h, 4.4 h, and 13 h of incubation, and the amount of intact ligand was analyzed by integration of the TLC chromatogram.

## C[C@@H](NC(=O)[C@@H](CCCNC(=N)N)NC(=O)[C@@H](CN)NC(=O)C(CNCCN)CNCCN)C(=O)Nc1ccc(C(=O)NCCC[C@@H]2C(=O)N[C@@H](CCCNC(=N)N)C(=O)N[C@@H](Cc3ccc4ccccc4c3)C(=O)NCC(=O)N[C@H](Cc3ccc(O)cc3)C(=O)N2C)cc1 [[^99mTc]Tc-N4-L6-CPCR4, [^99mTc]Tc-N4-dap-r-a-Abz-CPCR4, metal not drawn] (cyclo([dY][dNMeOrn]([4Abz-dA-dR-dDap-X1])R[2Nal]G))
[1]; 2 h
  internalized activity in % of total cellular activity: 97%
[1]; 2 h, 37°, 0.2 nM
  absolute intracellular tracer accumulation: ~40 % of added dose
[1]; 120 min, normalized to specific internalization of [^125I]FC-131, Chem-1 cells
  Internalization (% of reference): 694 (120 min) % of reference
[1]; internalization kinetics, Fig. 1
  internalization area under the curve (AUC): 3799
[2]; diluted with saline, citrate and DTPA, room temperature
  stability in saline and challenging conditions: progressive decomposition
[2]; start
  percentage of intact tracer: 94.5%
[2]; within 2.5 h
  percentage of intact tracer: 90.6%
[2]; whole blood, serum, human serum albumin (2.5 and 5%), 13 h, room temperature
  stability in physiological media: fully stable
